{"source": "the OPERA property sets (Mansouri et al. 2018)", "data": [{"settings": "not given", "units": {"melting point": "°C", "boiling point": "°C"}, "values": [{"compound": "CCC(Cc1c(I)cc(I)c(N)c1I)C(=O)O", "note": "(configuration not stated)", "melting point": 155}, {"compound": "Cc1cc(Cl)ccc1O", "boiling point": 209, "log10 vapour pressure (mmHg)": -1.62, "melting point": 51, "ready biodegradability": "not readily biodegradable"}, {"compound": "NC(=O)OCc1ccccc1", "melting point": 88}, {"compound": "O=CNC(Nc1ccc(Cl)c(Cl)c1)C(Cl)(Cl)Cl", "note": "(configuration not stated)", "melting point": 135}, {"compound": "CCCC(C)(CC)CCC", "boiling point": 161}, {"compound": "CCOC(=O)CCBr", "boiling point": 179}, {"compound": "CC(C)CCOCc1ccccc1", "boiling point": 237}, {"compound": "CCCCC(=O)O", "boiling point": 186, "log10 Henry constant (atm·m³/mol)": -6.33, "log10 vapour pressure (mmHg)": -0.708, "melting point": -34, "ready biodegradability": "readily biodegradable"}, {"compound": "CCOC(=O)[N-]c1c[n+](N2CCOCC2)no1", "melting point": 140}, {"compound": "c1ccoc1", "boiling point": 31.5, "log10 vapour pressure (mmHg)": 2.78, "melting point": -85.6, "ready biodegradability": "not readily biodegradable"}, {"compound": "COc1ccccc1OCC(O)CO", "note": "(configuration not stated)", "melting point": 78.5}, {"compound": "CC[C@H]1CN2CCc3cc(OC)c(OC)cc3[C@@H]2C[C@@H]1C[C@H]1NCCc2cc(OC)c(OC)cc21", "melting point": 74}, {"compound": "O=C(O)CCCCCCC(=O)O", "boiling point": 346, "log10 vapour pressure (mmHg)": -6.54, "melting point": 144}, {"compound": "Nc1c(O)cccc1[N+](=O)[O-]", "melting point": 216}, {"compound": "O=C(O)c1cc(C(=O)O)c(C(=O)O)cc1C(=O)O", "melting point": 276}, {"compound": "C=CCCCCCC", "boiling point": 121, "log10 Koa": 3.35, "log10 vapour pressure (mmHg)": 1.24, "melting point": -102}, {"compound": "O=C(Nc1ccccc1)NC1CCCCC1", "log10 Koc (L/kg)": 2.07}, {"compound": "OC(c1ccccc1)(C(F)(F)F)C(F)(F)F", "boiling point": 160}, {"compound": "c1ccc2cc(-c3ccc4ccccc4c3)ccc2c1", "boiling point": 452, "melting point": 188}, {"compound": "N#Cc1ccc2[nH]ccc2c1", "melting point": 107}, {"compound": "CON=C(Cc1cccnc1)c1ccc(Cl)cc1Cl", "log10 vapour pressure (mmHg)": -4.89}, {"compound": "C=C(C)c1cc(=O)c(O)ccc1CC=C(C)C", "melting point": 71.5}, {"compound": "NC(=O)C(=O)O", "log10 vapour pressure (mmHg)": -6.33}, {"compound": "CC(=O)CC(c1ccc(Cl)cc1)c1c(O)c2ccccc2oc1=O", "note": "(configuration not stated)", "melting point": 169}, {"compound": "CCCCCCCCc1ccc(Nc2ccc(CCCCCCCC)cc2)cc1", "ready biodegradability": "not readily biodegradable"}, {"compound": "CC(C)(C)Br", "boiling point": 73.3, "log10 vapour pressure (mmHg)": 2.13, "melting point": -16.2}, {"compound": "CCCCC(=O)N(C)C", "melting point": -51}, {"compound": "COP(=S)(OC)Oc1ccc(S(=O)(=O)N(C)C)cc1", "melting point": 53, "ready biodegradability": "readily biodegradable"}, {"compound": "C#CCCC(C)=O", "boiling point": 149}, {"compound": "OCC(F)(F)C(F)(F)C(F)(F)C(F)F", "boiling point": 140}, {"compound": "CC(C)OC(=O)C(Cl)(Cl)Cl", "boiling point": 175}, {"compound": "Cc1ccccc1C(C)C", "boiling point": 178, "log10 vapour pressure (mmHg)": 0.176, "melting point": -71.5, "ready biodegradability": "not readily biodegradable"}, {"compound": "Cc1nc2n(c(=O)c1CCN1CCC(c3noc4cc(F)ccc34)CC1)CCCC2", "melting point": 170}, {"compound": "FC(F)(F)C(Cl)(Cl)C(F)(F)Cl", "boiling point": 72, "melting point": -4.3}, {"compound": "CCCCCCCCCI", "log10 vapour pressure (mmHg)": -1.56}, {"compound": "Cc1ccc(Cl)cc1", "boiling point": 162, "log10 vapour pressure (mmHg)": 0.43, "melting point": 7.5, "ready biodegradability": "not readily biodegradable"}, {"compound": "Cc1cc2c(cc1Nc1ccccc1)C1(OC(=O)c3ccccc31)c1ccc(N(C)C3CCCCC3)cc1O2", "note": "(configuration not stated)", "ready biodegradability": "not readily biodegradable"}, {"compound": "CC=CC(OCC)OCC", "boiling point": 148}, {"compound": "CN[C@H](C)[C@@H](O)c1ccc(O)cc1", "note": "(racemic)", "melting point": 153}, {"compound": "Cc1ccc(Br)cc1", "boiling point": 184, "log10 Henry constant (atm·m³/mol)": -2.63, "log10 vapour pressure (mmHg)": 0.0607, "melting point": 28.5}, {"compound": "COP(=S)(OC)SCn1nnc2ccccc2c1=O", "log10 Koc (L/kg)": 2.28, "log10 vapour pressure (mmHg)": -5.8, "melting point": 73, "ready biodegradability": "readily biodegradable"}, {"compound": "CCC(C)(CC)c1cc(NC(=O)c2c(OC)cccc2OC)on1", "log10 Koc (L/kg)": 2.4, "log10 vapour pressure (mmHg)": -8.38, "melting point": 178}, {"compound": "CC(=O)NC(=O)COC(=O)c1ccccc1", "melting point": 104}, {"compound": "ClCCCCCCl", "boiling point": 179, "log10 Henry constant (atm·m³/mol)": -3.25, "log10 vapour pressure (mmHg)": 0.0531, "melting point": -72.8}, {"compound": "CCOCCc1ccc(OCCN=c2[nH]cnc(CC)c2Cl)c(C)c1C", "melting point": 70}, {"compound": "CC(C)=CC=O", "boiling point": 134}, {"compound": "Oc1ccc(Br)cc1Br", "boiling point": 238, "melting point": 38, "ready biodegradability": "not readily biodegradable"}, {"compound": "CCCCCCCCCCCC(CCCCCCCC)c1ccccc1", "note": "(configuration not stated)", "melting point": 17.9}, {"compound": "Clc1ccc(Cl)c(Cl)c1", "boiling point": 214, "log10 Henry constant (atm·m³/mol)": -2.85, "log10 Koa": 4.95, "log10 Koc (L/kg)": 3.1, "log10 vapour pressure (mmHg)": -0.337, "melting point": 17, "ready biodegradability": "not readily biodegradable"}, {"compound": "OCC(F)(F)C(F)(F)C(F)(F)C(F)(F)C(F)(F)C(F)F", "ready biodegradability": "not readily biodegradable"}, {"compound": "CC(C)Nc1ccc(Nc2ccccc2)cc1", "melting point": 74, "ready biodegradability": "not readily biodegradable"}, {"compound": "CC(C)c1cc(C(C)C)cc(C(C)C)c1", "boiling point": 238, "melting point": -7.4}, {"compound": "CC(=O)C=O", "boiling point": 72, "log10 Henry constant (atm·m³/mol)": -6.57}]}, {"settings": "fish", "values": [{"compound": "CCOC(=O)CC(SP(=O)(OC)OC)C(=O)OCC", "note": "(configuration not stated)", "log10 BCF": 0.05, "log10 biotransformation half-life (days)": -1.04}, {"compound": "CC1CCCCC1", "log10 BCF": 2.27, "log10 biotransformation half-life (days)": 0.57}, {"compound": "CCc1nn(C)c(C(=O)NCc2ccc(C(C)(C)C)cc2)c1Cl", "log10 BCF": 1.15}, {"compound": "O=[N+]([O-])c1ccc(Cl)cc1", "log10 BCF": 1.3, "log10 biotransformation half-life (days)": -0.48}, {"compound": "Cc1cc(Cl)ccc1O", "log10 BCF": 1.33, "log10 biotransformation half-life (days)": -0.83}, {"compound": "c1ccoc1", "log10 BCF": 0.7, "log10 biotransformation half-life (days)": -0.84}, {"compound": "Cc1ccc(Cl)cc1", "log10 BCF": 1.76, "log10 biotransformation half-life (days)": -0.83}, {"compound": "C=CCOP(=O)(OCC=C)OCC=C", "log10 BCF": 0.08}, {"compound": "Clc1ccc(Cl)c(Cl)c1", "log10 BCF": 3.32, "log10 biotransformation half-life (days)": 1.2}]}]}
